Measurements reported in BindingDB's records for patent US20250129027 (Apogee Pharmaceuticals, 2025).

Tests used:
[1] = target: T1, Fatty-acid amide hydrolase 1 (Homo sapiens, UniProt O00519); assay: In Vitro Inhibition on FAAH and MAGL Activity Assay
T1 sequence (O00519 whole entry): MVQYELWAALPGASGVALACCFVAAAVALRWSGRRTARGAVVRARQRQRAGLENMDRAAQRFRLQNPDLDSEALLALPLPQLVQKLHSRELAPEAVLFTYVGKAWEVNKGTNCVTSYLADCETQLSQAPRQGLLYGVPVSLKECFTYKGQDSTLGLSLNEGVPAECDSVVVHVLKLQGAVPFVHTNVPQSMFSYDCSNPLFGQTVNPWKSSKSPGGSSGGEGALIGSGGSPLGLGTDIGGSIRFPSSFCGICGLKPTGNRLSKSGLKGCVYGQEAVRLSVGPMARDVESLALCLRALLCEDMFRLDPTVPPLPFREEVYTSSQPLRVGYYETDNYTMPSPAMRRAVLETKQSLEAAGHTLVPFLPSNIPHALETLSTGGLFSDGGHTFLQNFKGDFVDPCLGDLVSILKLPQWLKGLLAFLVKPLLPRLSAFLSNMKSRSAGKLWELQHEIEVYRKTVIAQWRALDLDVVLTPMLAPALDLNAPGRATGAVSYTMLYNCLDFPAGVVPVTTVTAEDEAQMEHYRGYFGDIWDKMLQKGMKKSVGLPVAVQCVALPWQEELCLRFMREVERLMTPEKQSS
From the text: (§1) In brief, FAAH hydrolyzes AMC arachidonoyl amide resulting in the release of the fluorescent product, while the inhibitor will inhibit the FAAH activity and thus reduce the fluorescent signal. […] The absorbance of the yellow product can be analyzed using the plate reader.

Monoglyceride lipase = target: T2, Monoglyceride lipase (Homo sapiens, UniProt Q99685); assay: as above
T2 sequence (Q99685 whole entry): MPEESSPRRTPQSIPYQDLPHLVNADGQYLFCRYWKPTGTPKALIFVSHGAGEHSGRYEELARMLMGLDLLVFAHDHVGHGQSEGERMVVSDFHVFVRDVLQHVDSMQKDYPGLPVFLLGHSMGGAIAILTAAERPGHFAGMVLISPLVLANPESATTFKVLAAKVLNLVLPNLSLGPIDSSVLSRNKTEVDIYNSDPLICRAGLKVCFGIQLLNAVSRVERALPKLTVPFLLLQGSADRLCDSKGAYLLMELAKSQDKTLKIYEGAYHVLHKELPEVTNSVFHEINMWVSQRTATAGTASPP
From the text: as §1

CN(C(=O)Oc1cccc(-c2cncc(-c3nnco3)c2)c1)C1CCCCCC1 [US20250129027, Example 144]
IC50 [1]: > 1 µM | IC50 (Monoglyceride lipase): > 10 µM

CCCCCCCCNC(=O)Oc1ccc(OC)c(-c2cncc(-c3cccs3)c2)c1 [US20250129027, Example 65]
IC50 (Monoglyceride lipase): 10 µM

CCCCCCCNC(=O)Oc1ccc(OC)c(-c2cncc(-c3nnco3)c2)c1 [US20250129027, Example 166]
IC50 (Monoglyceride lipase): > 10 µM

CCCCCCCCNC(=O)Oc1ccc(OC)c(-c2cncc(-c3nnco3)c2)c1 [US20250129027, Example 167]
IC50 (Monoglyceride lipase): > 10 µM

CCCCCCCCNC(=O)Oc1ccc(OC)c(-c2cncc(-c3ccc[nH]3)c2)c1 [US20250129027, Example 41]
IC50 (Monoglyceride lipase): > 10 µM

CCCCCCCNC(=O)Oc1ccc(O)c(-c2cncc(-c3nnco3)c2)c1 [US20250129027, Example 156]
IC50 (Monoglyceride lipase): > 20 µM

CCCCCCCCNC(=O)Oc1cccc(-c2cncc(C(F)(F)F)c2)c1 [US20250129027, Example 30]
IC50 (Monoglyceride lipase): > 10 µM

O=Cc1cncc(-c2cccc(OC(=O)NC3CCCCC3)c2)c1 [US20250129027, Example 19]
IC50 [1]: 1 µM | IC50 (Monoglyceride lipase): > 10 µM

CCCCCCNC(=O)Oc1cccc(-c2cncc(-c3nnco3)c2)c1 [US20250129027, Example 128]
IC50 (Monoglyceride lipase): > 50 µM

CN(C)c1ccc(OC(=O)NC2CCCC2)cc1-c1cncc(-c2nnco2)c1 [US20250129027, Example 183]
IC50 [1]: > 1 µM | IC50 (Monoglyceride lipase): > 10 µM

CCCCCCCCNC(=O)Oc1ccc(O)c(-c2cncc(-c3nnco3)c2)c1 [US20250129027, Example 157]
IC50 (Monoglyceride lipase): > 10 µM

CCCCCCCCCCCCCCNC(=O)Oc1cccc(-c2cncc(C(=O)NO)c2)c1 [US20250129027, Example 24]
IC50 [1]: < 0.01 µM | IC50 (Monoglyceride lipase): > 10 µM

CCCCCCCCCCCCNC(=O)Oc1cccc(-c2cncc(-c3nnco3)c2)c1 [US20250129027, Example 131]
IC50 (Monoglyceride lipase): < 10 µM

COc1ccc(OC(=O)NC2CCCCC2)cc1-c1cncc(-c2nncs2)c1 [US20250129027, Example 217]
IC50 (Monoglyceride lipase): > 10 µM

CCCCCCCCNC(=O)Oc1ccc(OC(F)(F)F)c(-c2cncc(-c3ncco3)c2)c1 [US20250129027, Example 88]
IC50 (Monoglyceride lipase): 10 µM

CCCCCCCNC(=O)Oc1cccc(-c2cncc(C(=O)OC)c2)c1 [US20250129027, Example 9]
IC50 (Monoglyceride lipase): > 10 µM

CCCCCCCCNC(=O)Oc1cccc(-c2cncc(-c3nnco3)c2)c1 [US20250129027, Example 130]
IC50 (Monoglyceride lipase): > 10 µM

CCCCCCCCCCCCCCNC(=O)Oc1cccc(-c2cncc(-c3nnco3)c2)c1 [US20250129027, Example 132]
IC50 [1]: < 0.02 µM | IC50 (Monoglyceride lipase): < 10 µM

CCCCCCCCNC(=O)Oc1cccc(-c2cncc(C(=O)OC)c2)c1 [US20250129027, Example 10]
IC50 (Monoglyceride lipase): > 1 µM

CCCCCNC(=O)Oc1cccc(-c2cncc(C(=O)OCC)c2)c1 [US20250129027, Example 1]
IC50 (Monoglyceride lipase): > 10 µM

CCCCCCCCNC(=O)Oc1cccc(-c2cncc(C#N)c2)c1 [US20250129027, Example 27]
IC50 (Monoglyceride lipase): > 10 µM

CCCCCNC(=O)Oc1cccc(-c2cncc(C(=O)OC)c2)c1 [US20250129027, Example 8]
IC50 (Monoglyceride lipase): > 10 µM

CCCCCCCCNC(=O)Oc1cccc(-c2cncc(-c3ccco3)c2)c1 [US20250129027, Example 47]
IC50 (Monoglyceride lipase): 10 µM

CCCCCCCCNC(=O)Oc1cccc(-c2cncc(C(=O)OCC)c2)c1 [US20250129027, Example 3]
IC50 (Monoglyceride lipase): > 10 µM

CCCCCCCNC(=O)Oc1cccc(-c2cncc(C#N)c2)c1 [US20250129027, Example 26]
IC50 (Monoglyceride lipase): > 10 µM
